Source: patent publication US6498137B1, “Aerosol cleaning composition containing an organic acid and a spore forming microbial composition” (Spartan Chemical Company, Inc., priority 2001, dated 2002)

Tests used:
test organism = assay: Nisin in letheen broth sub-culture: effect on the test organism; type: cell-based; details: 0.1 μg/ml nisin in letheen broth
Method: (§1) Nisin is not an ingredient in the product formulation. It is a modification to the AOAC test method. Specifically, when setting up the test sub-culture 0.1 μg/ml of nisin is added to the letheen broth.

Bacillus spores = assay: Nisin in letheen broth sub-culture: out-growth of Bacillus spores; type: cell-based; details: 0.1 μg/ml nisin in letheen broth
Method: as §1

nisin
bacteriostatic effect on the test organism (test organism): no bacteriostatic effect
out-growth of Bacillus spores transferred on the carrier (Bacillus spores): inhibits out-growth
